For experiment [1], the target named is Peroxisome proliferator-activated receptor gamma/Nuclear receptor coactivator 1 (Homo sapiens, UniProt P37231). Put plainly: TR-FRET dose response biochemical High Throughput Screening assay for agonists of the steroid receptor coactivator 1 (SRC-1) recruitment by the peroxisome proliferator-activated receptor gamma (PPAR gamma): non-selective agonists. [Related pubchem assays (depositor defined):AID1300, AID1808, AID504735, AID631]. It is filed as protein assay.
Chain of Peroxisome proliferator-activated receptor gamma/Nuclear receptor coactivator 1 (P37231 whole entry): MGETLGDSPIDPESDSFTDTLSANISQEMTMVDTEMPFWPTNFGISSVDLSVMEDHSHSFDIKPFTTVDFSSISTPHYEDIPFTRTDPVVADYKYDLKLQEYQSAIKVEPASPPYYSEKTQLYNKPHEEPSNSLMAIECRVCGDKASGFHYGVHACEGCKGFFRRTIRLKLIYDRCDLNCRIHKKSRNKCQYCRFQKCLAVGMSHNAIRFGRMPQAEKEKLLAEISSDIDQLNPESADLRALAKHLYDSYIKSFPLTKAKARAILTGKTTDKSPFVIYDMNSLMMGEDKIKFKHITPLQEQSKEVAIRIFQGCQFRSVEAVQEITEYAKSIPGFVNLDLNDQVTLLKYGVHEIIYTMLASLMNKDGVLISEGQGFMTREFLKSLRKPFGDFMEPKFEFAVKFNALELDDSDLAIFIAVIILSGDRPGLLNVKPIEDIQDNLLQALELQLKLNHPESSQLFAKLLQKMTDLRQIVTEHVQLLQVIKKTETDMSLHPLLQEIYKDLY
Chain of Peroxisome proliferator-activated receptor gamma/Nuclear receptor coactivator 1 (Q15788 whole entry, further chain): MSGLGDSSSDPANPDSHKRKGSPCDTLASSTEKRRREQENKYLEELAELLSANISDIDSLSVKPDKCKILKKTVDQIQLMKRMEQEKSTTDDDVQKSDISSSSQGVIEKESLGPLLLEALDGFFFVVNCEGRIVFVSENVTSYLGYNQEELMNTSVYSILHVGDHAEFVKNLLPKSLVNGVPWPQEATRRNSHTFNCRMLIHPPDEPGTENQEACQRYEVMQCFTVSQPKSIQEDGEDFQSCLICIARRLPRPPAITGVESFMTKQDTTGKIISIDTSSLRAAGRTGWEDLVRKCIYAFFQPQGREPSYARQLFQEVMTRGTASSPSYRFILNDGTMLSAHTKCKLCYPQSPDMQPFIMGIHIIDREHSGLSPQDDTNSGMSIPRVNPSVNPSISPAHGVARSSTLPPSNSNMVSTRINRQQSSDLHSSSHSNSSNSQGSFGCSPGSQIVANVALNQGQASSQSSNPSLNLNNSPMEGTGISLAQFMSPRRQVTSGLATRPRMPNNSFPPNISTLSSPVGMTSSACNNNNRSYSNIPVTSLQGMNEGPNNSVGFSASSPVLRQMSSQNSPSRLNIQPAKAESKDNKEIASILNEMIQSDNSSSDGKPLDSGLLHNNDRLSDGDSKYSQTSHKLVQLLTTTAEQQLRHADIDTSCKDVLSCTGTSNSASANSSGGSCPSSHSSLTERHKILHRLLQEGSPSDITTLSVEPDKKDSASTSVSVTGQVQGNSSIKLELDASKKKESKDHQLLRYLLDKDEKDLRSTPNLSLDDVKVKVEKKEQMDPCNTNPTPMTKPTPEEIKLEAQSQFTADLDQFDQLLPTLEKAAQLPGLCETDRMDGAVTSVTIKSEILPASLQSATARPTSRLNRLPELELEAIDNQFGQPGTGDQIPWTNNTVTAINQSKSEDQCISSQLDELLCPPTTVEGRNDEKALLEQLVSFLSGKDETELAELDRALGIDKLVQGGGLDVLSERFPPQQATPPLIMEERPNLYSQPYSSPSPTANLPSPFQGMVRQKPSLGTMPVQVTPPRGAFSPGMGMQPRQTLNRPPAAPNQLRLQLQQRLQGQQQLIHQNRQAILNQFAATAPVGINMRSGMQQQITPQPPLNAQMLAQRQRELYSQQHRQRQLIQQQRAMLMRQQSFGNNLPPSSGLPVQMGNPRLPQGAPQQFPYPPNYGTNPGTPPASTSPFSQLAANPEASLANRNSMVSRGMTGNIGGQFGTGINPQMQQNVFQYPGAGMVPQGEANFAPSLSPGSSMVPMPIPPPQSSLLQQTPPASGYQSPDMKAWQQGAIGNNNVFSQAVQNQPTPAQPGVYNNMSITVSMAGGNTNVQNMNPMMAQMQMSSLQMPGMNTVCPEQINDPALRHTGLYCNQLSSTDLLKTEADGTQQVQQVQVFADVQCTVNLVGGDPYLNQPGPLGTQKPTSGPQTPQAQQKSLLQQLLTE

The target in a further experiment is T1, Protein skinhead-1 (Caenorhabditis elegans, UniProt P34707).
T1 sequence (P34707 whole entry): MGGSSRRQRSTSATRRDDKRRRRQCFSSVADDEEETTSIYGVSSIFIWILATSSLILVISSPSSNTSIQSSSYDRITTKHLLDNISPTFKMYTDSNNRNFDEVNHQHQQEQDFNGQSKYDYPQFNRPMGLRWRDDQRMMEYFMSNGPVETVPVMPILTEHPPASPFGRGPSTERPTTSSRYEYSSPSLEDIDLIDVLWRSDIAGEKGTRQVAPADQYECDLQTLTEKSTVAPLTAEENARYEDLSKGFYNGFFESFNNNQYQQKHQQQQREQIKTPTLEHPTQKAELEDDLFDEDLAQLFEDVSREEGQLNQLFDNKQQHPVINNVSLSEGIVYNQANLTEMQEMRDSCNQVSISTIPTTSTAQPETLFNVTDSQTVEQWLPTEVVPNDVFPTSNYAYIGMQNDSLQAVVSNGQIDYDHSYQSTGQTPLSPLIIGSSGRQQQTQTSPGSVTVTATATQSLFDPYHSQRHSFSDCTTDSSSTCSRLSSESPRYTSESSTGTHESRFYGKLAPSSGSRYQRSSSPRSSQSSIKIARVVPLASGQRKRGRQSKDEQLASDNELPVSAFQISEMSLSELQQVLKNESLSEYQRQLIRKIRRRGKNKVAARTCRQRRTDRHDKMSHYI
The class given is functional.

Experiment [2] addresses Peroxisome proliferator-activated receptor gamma/Nuclear receptor coactivator 3 (Homo sapiens, UniProt P37231). Put plainly: TR-FRET dose response biochemical High Throughput Screening assay for agonists of the steroid receptor coactivator 3 (SRC-3) recruitment by the peroxisome proliferator-activated receptor gamma (PPAR gamma): non-selective agonists. [Related pubchem assays: 1301 (Confirmation screen.), 1048 (Primary screen.)]. The class given is functional. In general terms: In TR-FRET formats the signal depends on donor and acceptor labels being close together.

In experiment [3] the target is Peroxisome proliferator-activated receptor gamma/Nuclear receptor coactivator 2 (Homo sapiens, UniProt P37231). Put plainly: TR-FRET dose response biochemical High Throughput Screening assay for agonists of the steroid receptor coactivator 2 (SRC-2) recruitment by the peroxisome proliferator-activated receptor gamma (PPAR gamma): non-selective agonists. [Related pubchem assays: 1297, 1032 ]. The class given is functional.

In experiment [4] the target is UDP-galactopyranose mutase (Mycobacterium tuberculosis, UniProt P9WIQ1). Put plainly: Inhibitors of Mycobacterium tuberculosis UDP-galactopyranose mutase (UGM) enzyme Measured in Biochemical System Using Plate Reader - 2105-02_Inhibitor_Dose_CherryPick_Activity. [Related pubchem assays (depositor defined):AID504439].
Chain of UDP-galactopyranose mutase (P9WIQ1 whole entry): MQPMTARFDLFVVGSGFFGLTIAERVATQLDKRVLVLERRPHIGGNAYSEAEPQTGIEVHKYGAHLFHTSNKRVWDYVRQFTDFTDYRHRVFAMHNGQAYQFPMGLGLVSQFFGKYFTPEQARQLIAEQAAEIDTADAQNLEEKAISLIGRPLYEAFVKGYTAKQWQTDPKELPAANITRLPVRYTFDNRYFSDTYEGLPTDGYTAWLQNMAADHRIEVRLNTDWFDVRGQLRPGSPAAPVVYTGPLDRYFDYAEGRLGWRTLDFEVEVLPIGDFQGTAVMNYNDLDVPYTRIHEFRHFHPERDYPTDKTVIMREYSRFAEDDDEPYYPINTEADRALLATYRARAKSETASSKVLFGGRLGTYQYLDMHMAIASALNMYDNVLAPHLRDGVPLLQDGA
Experiment [5] addresses Lysine-specific demethylase 4C (Homo sapiens, UniProt Q9H3R0). Put plainly: GASC-1 (JMJD2C) histone demethylase inhibitors, dose response, biochemical, DELFIA europium, cherry-picked samples (AID 488835). The class given is functional.
A short description of experiment [6]: THP-1 cell cytotoxicity, dose response, cytotoxicity control for Vif-APOBEC3G degradation inhibitor project, THP-1 cells (AID 1117359). It is filed as functional. Particulars: Human immunodeficiency virus 1, THP-1.
In experiment [7] the target is Hepatocyte nuclear factor 4-alpha (Homo sapiens, UniProt P41235). The class given is functional, cell-based.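 Further: biochemical luminescence-based dose-response counterscreen measuring inhibition of HNF4 dimerization, run alongside a screen for blockers of ABHD5–perilipin-5 interaction; split luciferase complementation of HNF4 fusion proteins in cell lysate measuring dimerization.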
Experiment [8] addresses T2, Microphthalmia-associated transcription factor (Homo sapiens, UniProt O75030).
T2 sequence (O75030 whole entry): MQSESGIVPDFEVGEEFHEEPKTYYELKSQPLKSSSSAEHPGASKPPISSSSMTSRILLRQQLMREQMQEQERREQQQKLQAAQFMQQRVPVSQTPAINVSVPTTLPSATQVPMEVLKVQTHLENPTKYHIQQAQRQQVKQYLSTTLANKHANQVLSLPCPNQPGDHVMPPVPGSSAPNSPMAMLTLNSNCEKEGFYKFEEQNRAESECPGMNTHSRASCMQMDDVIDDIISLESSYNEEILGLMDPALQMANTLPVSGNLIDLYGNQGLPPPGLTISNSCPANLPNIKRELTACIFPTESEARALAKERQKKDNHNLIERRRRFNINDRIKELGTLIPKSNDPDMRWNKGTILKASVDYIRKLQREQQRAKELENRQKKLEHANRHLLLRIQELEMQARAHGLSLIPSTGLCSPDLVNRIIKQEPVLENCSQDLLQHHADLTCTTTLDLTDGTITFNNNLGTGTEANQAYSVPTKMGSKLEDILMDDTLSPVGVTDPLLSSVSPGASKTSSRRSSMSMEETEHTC
Put plainly: TRPM1 promoter luciferase signal decrease, dose response, MITF inhibitor project, cell-based, SK-MEL-5, cherry-picked, set 3 (AID 493073).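 Further: SK-MEL-5 melanoma cells with luciferase driven by the MITF target TRPM1 promoter.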 It is filed as functional.

Experiment [9] deals with Heat shock protein HSP 90-alpha (Homo sapiens, UniProt P07900). It is filed as functional, organism-based.
The subject of experiment [10] is HEK293. Put plainly: cells. Particulars: Homo sapiens.
Experiment [11] has as its system HEK293. Put plainly: cells. Particulars: Homo sapiens. This is another data set of the same source.
Experiment [12] has as its target T3, CAAX prenyl protease 2 (Saccharomyces cerevisiae S288c, UniProt Q03530).
T3 sequence (Q03530 whole entry): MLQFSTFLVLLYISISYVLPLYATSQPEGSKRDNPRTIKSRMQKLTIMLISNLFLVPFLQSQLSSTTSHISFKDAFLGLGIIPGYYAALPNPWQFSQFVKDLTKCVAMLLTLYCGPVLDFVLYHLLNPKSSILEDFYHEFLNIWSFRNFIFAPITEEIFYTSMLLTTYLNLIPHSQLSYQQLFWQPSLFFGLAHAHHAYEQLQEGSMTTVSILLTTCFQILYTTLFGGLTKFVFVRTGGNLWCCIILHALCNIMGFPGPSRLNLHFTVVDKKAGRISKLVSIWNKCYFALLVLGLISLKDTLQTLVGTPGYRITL
The class given is biochemical.

Experiment [13] is described as follows: mammalian cell cytotoxicity, dose response, cytotoxicity control, plate reader, cherry-pick samples (AID 504397). The class given is functional, cell-based.
In experiment [14] the target is Voltage-dependent T-type calcium channel subunit alpha-1H (Homo sapiens, UniProt O95180). The class given is functional.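 Further: channel activity triggered by adding a high calcium stimulation buffer.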
Experiment [15] deals with T4, CAAX prenyl protease 2 (Homo sapiens, UniProt Q9Y256).
T4 sequence (Q9Y256 whole entry): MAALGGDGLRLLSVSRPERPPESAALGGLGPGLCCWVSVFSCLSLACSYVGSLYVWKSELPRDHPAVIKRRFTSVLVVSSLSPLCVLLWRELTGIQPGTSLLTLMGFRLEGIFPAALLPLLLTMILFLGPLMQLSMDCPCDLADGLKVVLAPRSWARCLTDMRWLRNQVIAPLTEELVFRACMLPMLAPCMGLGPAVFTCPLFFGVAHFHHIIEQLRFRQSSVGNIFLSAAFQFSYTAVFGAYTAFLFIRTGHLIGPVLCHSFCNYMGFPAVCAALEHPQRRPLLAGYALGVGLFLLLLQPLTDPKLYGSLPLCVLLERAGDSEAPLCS
Put plainly: human Rce1 protease inhibitors, dose response, biochemical, yeast membranes, quenched-peptide fluorescence, cherry-pick (AID 588849).

For experiment [16], the target named is T5, Mannose-6-phosphate isomerase (Homo sapiens, UniProt P34949).
T5 sequence (P34949 whole entry): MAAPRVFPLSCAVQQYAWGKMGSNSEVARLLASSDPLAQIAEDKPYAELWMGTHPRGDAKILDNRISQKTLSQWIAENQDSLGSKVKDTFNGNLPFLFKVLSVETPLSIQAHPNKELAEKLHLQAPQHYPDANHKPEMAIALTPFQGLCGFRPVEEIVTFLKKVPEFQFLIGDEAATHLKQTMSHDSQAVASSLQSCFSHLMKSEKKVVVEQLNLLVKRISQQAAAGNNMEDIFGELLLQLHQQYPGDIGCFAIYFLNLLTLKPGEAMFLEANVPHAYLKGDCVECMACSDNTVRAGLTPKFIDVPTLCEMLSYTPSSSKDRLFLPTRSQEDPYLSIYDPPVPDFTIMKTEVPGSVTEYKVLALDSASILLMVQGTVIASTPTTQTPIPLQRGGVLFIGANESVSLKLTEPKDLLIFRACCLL
Put plainly: inhibitors of human PMI, primary screen, biochemical, fluorescence intensity, coupled assay (AID 1209).

Another experiment concerns the target Phosphomannomutase 2 (Homo sapiens, UniProt O15305). The experiment can be described thus: Counter screen SAR assay for PMM2 inhibitors via a fluorescence intensity assay. [Related pubchem assays (depositor defined):AID1545, AID1574]. (In general: A counterscreen serves to expose hits that act by an unwanted route or on another target.)
The target of experiment [17] is T5, Mannose-6-phosphate isomerase. The experiment can be described thus: PMI enzyme inhibitors, confirmation, biochemical, fluorescence intensity (AID 1535).
Experiment [18] addresses Mitogen-activated protein kinase 10 (Homo sapiens, UniProt P53779). Put plainly: Dose response biochemical screening assay for inhibitors of c-Jun N-Terminal Kinase 3 (JNK3). [Related pubchem assays: 746 ].
The target in the next experiment is Albumin (Bos taurus, UniProt P02769). Put plainly: Counterscreen for inhibitors of T-cell receptor (TCR)-CD3 interaction: Fluorescence-based biochemical high throughput dose response assay to identify inhibitors of T-cell receptor (TCR)-CD3 interaction using a TAMRA-labeled BSA probe. It is filed as functional.
The test system of experiment [19] is A-375. The experiment can be described thus: A375 melanoma cell viability reduction, dose response, counter-screen for MITF modulator project, cherry-pick samples, set 2 (AID 540335). The class given is functional, cell-based. The settings on record: Homo sapiens.
In experiment [20] the test system is A-375. The experiment can be described thus: MITF: Counter assay: A375 proliferation Measured in Cell-Based System Using Plate Reader - 2084-03_Inhibitor_Dose_DryPowder_Activity. [Related pubchem assays (depositor defined):AID488944]. Particulars: Homo sapiens. The class given is functional.

Activity calls are given as the source filed them.

The values below come from ChEMBL document CHEMBL1201862, “PubChem BioAssay data set” (2004).

Chain of Peroxisome proliferator-activated receptor gamma/Nuclear receptor coactivator 3 (P37231 whole entry): as the sequence (P37231 whole entry) above
Chain of Peroxisome proliferator-activated receptor gamma/Nuclear receptor coactivator 3 (Q9Y6Q9 whole entry, further chain): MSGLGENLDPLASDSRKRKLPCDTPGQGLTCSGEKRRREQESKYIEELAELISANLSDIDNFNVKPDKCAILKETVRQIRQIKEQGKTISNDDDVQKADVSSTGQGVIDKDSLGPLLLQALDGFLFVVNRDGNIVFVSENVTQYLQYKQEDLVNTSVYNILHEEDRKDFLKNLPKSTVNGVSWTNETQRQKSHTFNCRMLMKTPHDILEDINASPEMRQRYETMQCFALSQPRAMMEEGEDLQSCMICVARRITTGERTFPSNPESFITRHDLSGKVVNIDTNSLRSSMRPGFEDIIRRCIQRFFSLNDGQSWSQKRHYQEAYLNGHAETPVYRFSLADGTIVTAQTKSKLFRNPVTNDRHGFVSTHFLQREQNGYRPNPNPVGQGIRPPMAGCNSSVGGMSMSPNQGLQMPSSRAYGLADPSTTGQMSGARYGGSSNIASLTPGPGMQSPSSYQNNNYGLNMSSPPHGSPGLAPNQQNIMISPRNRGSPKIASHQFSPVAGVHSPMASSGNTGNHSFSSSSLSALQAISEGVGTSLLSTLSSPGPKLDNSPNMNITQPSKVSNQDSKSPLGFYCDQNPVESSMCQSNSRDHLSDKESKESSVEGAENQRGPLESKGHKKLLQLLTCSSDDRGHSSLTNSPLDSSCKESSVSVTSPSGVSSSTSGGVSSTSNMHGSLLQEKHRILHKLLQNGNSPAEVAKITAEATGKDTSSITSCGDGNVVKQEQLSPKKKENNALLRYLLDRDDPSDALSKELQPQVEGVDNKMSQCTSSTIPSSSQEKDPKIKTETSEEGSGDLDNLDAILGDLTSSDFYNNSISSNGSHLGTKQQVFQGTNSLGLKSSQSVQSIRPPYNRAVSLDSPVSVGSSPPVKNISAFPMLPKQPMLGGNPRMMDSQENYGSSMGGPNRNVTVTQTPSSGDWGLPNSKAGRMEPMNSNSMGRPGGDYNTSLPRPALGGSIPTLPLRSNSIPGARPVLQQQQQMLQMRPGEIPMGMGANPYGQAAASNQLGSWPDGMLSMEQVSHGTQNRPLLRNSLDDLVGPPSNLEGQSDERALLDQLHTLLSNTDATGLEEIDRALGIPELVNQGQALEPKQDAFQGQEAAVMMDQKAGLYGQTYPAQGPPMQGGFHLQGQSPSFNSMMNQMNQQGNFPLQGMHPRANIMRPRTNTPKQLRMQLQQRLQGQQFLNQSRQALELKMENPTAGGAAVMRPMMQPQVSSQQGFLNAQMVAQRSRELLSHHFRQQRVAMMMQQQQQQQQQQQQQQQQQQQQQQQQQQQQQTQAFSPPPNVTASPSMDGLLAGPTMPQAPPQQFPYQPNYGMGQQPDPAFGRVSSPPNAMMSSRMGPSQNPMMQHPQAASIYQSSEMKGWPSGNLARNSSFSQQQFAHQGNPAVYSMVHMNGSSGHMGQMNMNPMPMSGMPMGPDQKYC
Chain of Phosphomannomutase 2 (O15305 whole entry): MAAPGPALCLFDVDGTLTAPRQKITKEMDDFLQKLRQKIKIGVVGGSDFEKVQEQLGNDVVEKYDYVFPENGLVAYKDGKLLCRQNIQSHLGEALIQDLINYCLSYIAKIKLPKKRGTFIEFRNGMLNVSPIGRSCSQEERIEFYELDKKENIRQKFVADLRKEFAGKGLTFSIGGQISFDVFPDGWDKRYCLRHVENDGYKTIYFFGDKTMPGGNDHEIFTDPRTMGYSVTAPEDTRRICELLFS
Chain of Mitogen-activated protein kinase 10 (P53779 whole entry): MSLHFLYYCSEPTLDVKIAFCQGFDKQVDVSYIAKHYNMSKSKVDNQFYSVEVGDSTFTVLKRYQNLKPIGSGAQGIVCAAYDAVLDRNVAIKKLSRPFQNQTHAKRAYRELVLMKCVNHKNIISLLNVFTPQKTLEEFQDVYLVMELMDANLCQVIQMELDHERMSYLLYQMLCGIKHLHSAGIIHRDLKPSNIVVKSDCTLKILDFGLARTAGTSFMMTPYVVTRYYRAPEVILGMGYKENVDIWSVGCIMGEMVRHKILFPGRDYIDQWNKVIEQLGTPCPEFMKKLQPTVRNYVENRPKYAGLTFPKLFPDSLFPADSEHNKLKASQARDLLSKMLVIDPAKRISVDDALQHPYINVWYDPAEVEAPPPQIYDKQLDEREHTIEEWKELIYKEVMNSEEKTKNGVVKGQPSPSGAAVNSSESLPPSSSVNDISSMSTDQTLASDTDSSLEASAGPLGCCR

As usually defined, the EC50 is the concentration at which the effect is half-maximal. By IC50 is commonly meant the concentration at which inhibition is half-maximal. On to `Brc1cc(Br)c2nc(-c3cccs3)ccc2c1`, for which the figures for the EC50 in [1], in experiment [2] and in [3] were 34.7 µM (inactive), 47.9 µM (not active) and 30 µM (not active), respectively. On Protein skinhead-1, the IC50 is > 100 µM (inactive).

The AC50 is the concentration at which the activity in the assay is half-maximal. On to `Cc1cc(C(C)(C)C)cc(S(=O)(=O)Nc2ccc(C(=O)O)cc2)c1C`, for which the concentration at half-maximal activity (AC50) in [4] is 0.201 µM (active).

The term CC50 denotes the concentration giving 50% cytotoxicity. `O=C1NC(=O)N(Cc2ccc(F)cc2)C(=O)/C1=C\C=C\c1ccco1`: the values for the AC50 in experiment [5] and in experiment [8] were 7.02 µM (active) and 6.63 µM (active), respectively. In addition, the cytotoxic concentration (CC50) in experiment [6] is 28.9 µM (active). The IC50 in [7] was 1.87 µM (active).

On to `COc1ccccc1N1C(=O)C2C(C(=O)c3ccccc3)=NN(c3ccc(Br)cc3)C2C1=O` (stereo not given), for which, in experiment [4], the AC50 was 265 µM (active).

As for `O=C(C=Cc1ccccn1)c1ccccc1O`, the AC50 in experiment [9] is 2.37 µM (active). Besides, the EC50 in the experiment on HEK293 [10] and in the experiment with HEK293 [11] was > 59.6 µM (inactive) each time.

For `O=C(Nc1ccc(S(=O)(=O)Nc2ccccc2)cc1)C1COc2ccccc2O1` (stereo not given), the AC50 was 4.26 µM (active) on CAAX prenyl protease 2 [12], 120 µM (active) in [13] and 65.5 µM (active) on CAAX prenyl protease 2 [15]. For the same compound, in [14], the EC50 is 3.37 µM (active).

Take `Cc1cc2n(n1)SC(Nc1ccc(F)c(Cl)c1)N2` (stereo not given): the values for the IC50 (in [16]; on Phosphomannomutase 2; in experiment [17]) were > 50 µM (not active), > 100 µM (inactive) and > 50 µM (inactive), respectively.

Consider `CN(C)C(=S)N=c1ssc(=S)n1Cc1ccccc1`, for which the EC50 in the experiment on HEK293 [10] and in the experiment with HEK293 [11] was > 59.7 µM (inactive) in each case.

For the compound `CCOC(=O)CCC(NC(=O)c1ccc(NCN2C(=O)c3ccccc3C2=O)cc1)C(=O)OCC` (stereo not given), the EC50 was > 79.4 µM (inactive) in [1], > 79.4 µM (not active) in experiment [2] and > 79.4 µM (not active) in [3]. Besides, the IC50 in experiment [18] is 13.1 µM (not active).

Turning to `O=C(NNC(=O)C1CCN(S(=O)(=O)c2ccccc2)CC1)c1ccccc1O`, the IC50 at Albumin is > 94.1 µM (inactive). Moreover, the concentration at half-maximal activity (AC50) in experiment [5] was 6.67 µM (active).

Regarding `Cc1ccc(SCc2cn3cc(Cl)ccc3n2)cc1`, the AC50 with A-375 [19] and in the experiment with A-375 [20] was > 35 µM (active) in each case.
